# Patent US9730912B2, “Pharmaceutical compounds” (ASTEX THERAPEUTICS LIMITED, priority 2006, dated 2017)
# Columns and labels:
# [1] = biological target: T1, human Hsp90α N-terminal domain (Homo sapiens, UniProt P07900); experiment: Isothermal titration calorimetry (ITC) binding to human Hsp90; conditions: 25 mM Tris, 100 mM NaCl, 1 mM MgCl2, 1 mM TCEP, 5% DMSO, pH 7.4
# T1 construct: Cloning, expression, and purification of the Human Hsp90a N-terminal domain were performed according to published methods; made in house
# Description: The ability of the compounds of the invention to bind to human Hsp90 proteins was determined using isothermal titration calorimetry.
# Isothermal titration calorimetry (ITC) experiments were performed with a VP-ITC titration calorimeter (Microcal Inc., Northampton, Mass., USA). […] All solutions were filtered and degassed prior to a titration being carried out. The enthalpy change resulting from each injection of ligand was obtained through integration of the calorimetric signal. Data were analysed using Origin 7.0 (Microcal Software Inc., Northampton, Mass.). Heats of dilution were estimated using the final injections of each individual titration and subtracted before data fitting. Different ITC experimental formats were employed in order to obtain compound dissociation constants (Kd's) over a wide range of affinities. […] In this type of experiment the stoichiometry parameter (N) was locked at 1 for data fitting.
# [2] = Solid-state stability of crystalline L-lactate salt forms (storage in air / 40° C. and 75% RH, XRPD); assay type: physicochemical; conditions: solid L-lactate 1:1 salt of Compound (VIII); in air, or at 40° C. and 75% RH
# Text: Samples for X-ray powder diffraction (XRPD) data collection were gently ground by marble mortar and loaded into a crystallographic capillary (from Hampton Research, Quartz or Glass Type 10, 0.4 or 0.7 mm diameter). Diffraction patterns were collected at room temperature using CuKα radiation (λ=1.5418 Å) from a Rigaku rotating anode RU3HR, Osmic blue confocal optics, ¼ c goniometer and a Rigaku HTC image plate detector. 2D images were collected while spinning φ axis with a detector to crystal distance of 250 mm. Data collection was controlled by CrystalClear software and 2D images were converted to 1D plot (2θ vs. Intensity) by Datasqueeze (intensity averaged over the azimuthal angle 0≦χ≦360° for 2θ range 3-30° in 0.02° steps). In house program AstexXRPD was used for manipulation and visualisation of 1D XRPD patterns.
Structure (SMILES),Kd [1],stability of crystalline form [2]
"CC(C)c1cc(C(=O)N2Cc3ccc(CN4CCN(C)CC4)cc3C2)c(O)cc1O [Example 55, (2,4-dihydroxy-5-isopropyl-phenyl)-[5-(4-methyl-piperazin-1-ylmethyl)-1,3-dihydro-isoindol-2-yl]-methanone]",< 100 nM,
"CC(C)c1cc(C(=O)N2Cc3ccc(CN4CCN(C)CC4)cc3C2)c(O)cc1O.C[C@H](O)C(=O)O [Form FL1, (2,4-dihydroxy-5-isopropyl-phenyl)-[5-(4-methyl-piperazin-1-ylmethyl)-1,3-dihydro-isoindol-2-yl]-methanone L-lactate salt]",,stable in air and at 40 °C and 75% RH for at least one month
"CC(C)c1cc(C(=O)N2Cc3ccc(CN4CCN(C)CC4)cc3C2)c(O)cc1O.C[C@H](O)C(=O)O [Form FL3, (2,4-dihydroxy-5-isopropyl-phenyl)-[5-(4-methyl-piperazin-1-ylmethyl)-1,3-dihydro-isoindol-2-yl]-methanone L-lactate salt]",,transforms in air into form FL1
"CC(C)c1cc(C(=O)N2Cc3ccc(CN4CCN(C)CC4)cc3C2)c(O)cc1O.C[C@H](O)C(=O)O [form FL2, (2,4-dihydroxy-5-isopropyl-phenyl)-[5-(4-methyl-piperazin-1-ylmethyl)-1,3-dihydro-isoindol-2-yl]-methanone L-lactate salt]",,stable in air
